Experimental data taken from patent US12686692B2, “KRas G12D inhibitors” (Mirati Therapeutics, Inc., priority 2020, dated 2026).

target: KRas G12D (Homo sapiens, UniProt P01116, G12D); assay: KRas G12D Binding Assay (TR-FRET displacement of labeled tracer); design: corresponding to amino acids 1:169, produced at Array BioPharma; biotin (protein is biotinylated); details: TR-FRET displacement of Cy5 labelled tracer, biotinylated GDP-loaded KRAS G12D (aa 1:169), 60 minute incubation at 22° C.
Experimental: This Example illustrates that exemplary compounds of the present invention bind to KRas G12D and are capable of displacing a labeled tracer ligand occupying the KRas G12D binding site.
The ability of a compound to bind to KRAS G12D was measured using a TR-FRET displacement assay. Biotinylated GDP-loaded recombinant human KRAS G12D (corresponding to amino acids 1:169, produced at Array BioPharma) was incubated with a custom-made Cy5 labelled tracer, europium labelled streptavidin and compound (2% DMSO final) in buffer (50 mM HEPES [pH 7.5], 5 mM MgCl2, 0.005% Tween-20 & 1 mM DTT). After a 60 minute incubation at 22° C., the reaction was measured using a PerkinElmer EnVision multimode plate reader via TR-FRET dual wavelength detection, and the percent of control (POC) calculated using a ratiometric emission factor. […] The POC values were fit to a 4-parameter logistic curve and the IC50 value was determined as the concentration where the curve crosses 50 POC.

Sequence of KRas G12D (P01116 1-169 isoform P01116-2 G12D): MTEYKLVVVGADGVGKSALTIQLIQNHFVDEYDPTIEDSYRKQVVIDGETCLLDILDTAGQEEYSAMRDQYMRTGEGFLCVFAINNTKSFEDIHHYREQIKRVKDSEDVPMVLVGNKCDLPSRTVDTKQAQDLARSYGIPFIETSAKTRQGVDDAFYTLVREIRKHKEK

| Structure (SMILES) | IC50 |
| --- | --- |
| CN1CCC[C@H]1COc1nc2c(c(N3CC4CC(O)(C(F)F)C(C3)N4)n1)CCN(c1cccc3cccc(Cl)c13)C2 (stereo partly drawn) [Example 41, 3-(7-(8-chloronaphthalen-1-yl)-2-(((S)-1-methylpyrrolidin-2-yl)methoxy)-5,6,7,8-tetrahydropyrido[3,4-d]pyrimidin-4-yl)-6-(difluoromethyl)-3,8-diazabicyclo[3.2.1]octan-6-ol] | 3130 nM |
| CCc1cccc2cccc(N3CCc4c(nc(OC[C@@]56CCCN5C[C@H](F)C6)nc4C4CC5CCC(N5)C4O)C3)c12 (stereo in doubt) [Example 123, (1S,3R,5R)-3-(7-(8-ethylnaphthalen-1-yl)-2-(((2R,7aS)-2-fluorotetrahydro-1H-pyrrolizin-7a(5H)-yl)methoxy)-5,6,7,8-tetrahydropyrido[3,4-d]pyrimidin-4-yl)-8-azabicyclo[3.2.1]octan-2-ol] | 508 nM |
| CCCCc1cccc2cccc(N3CCc4c(nc(OC[C@@H]5CCCN5C)nc4N4C[C@H]5CC[C@@H](C4)N5)C3)c12 [Example 81, 4-((1R,5S)-3,8-diazabicyclo[3.2.1]octan-3-yl)-7-(8-butylnaphthalen-1-yl)-2-(((S)-1-methylpyrrolidin-2-yl)methoxy)-5,6,7,8-tetrahydropyrido[3,4-d]pyrimidine] | 710 nM |
| CCc1cccc2cccc(N3CCc4c(nc(OC[C@@]56CCCN5C[C@H](F)C6)nc4[C@@H]4C[C@H]5CC[C@@H](C4)N5)C3)c12 [Example 122, 4-((1R,3s,5S)-8-azabicyclo[3.2.1]octan-3-yl)-7-(8-ethylnaphthalen-1-yl)-2-(((2R,7aS)-2-fluorotetrahydro-1H-pyrrolizin-7a(5H)-yl)methoxy)-5,6,7,8-tetrahydropyrido[3,4-d]pyrimidine] | 234 nM |
| CN1CCC[C@H]1COc1nc2c(c(N3C[C@H]4CC[C@@H](C3)N4)n1)CCN(c1cccc3cc(O)cc(Cl)c13)C2 [Example 113, 5-(4-((1R,5S)-3,8-diazabicyclo[3.2.1]octan-3-yl)-2-(((S)-1-methylpyrrolidin-2-yl)methoxy)-5,6-dihydropyrido[3,4-d]pyrimidin-7(8H)-yl)-4-chloronaphthalen-2-ol] | 807 nM |
| CN1CCC[C@H]1COc1nc2c(c(N3C[C@H]4C[C@@H](CCN)[C@@H](C3)N4)n1)CCN(c1cccc3cccc(Cl)c13)C2 [Example 39, 2-((1R,5S,6R)-3-(7-(8-chloronaphthalen-1-yl)-2-(((S)-1-methylpyrrolidin-2-yl)methoxy)-5,6,7,8-tetrahydropyrido[3,4-d]pyrimidin-4-yl)-3,8-diazabicyclo[3.2.1]octan-6-yl)ethan-1-amine] | 2690 nM |
| CN1CCC[C@H]1COc1nc2c(c(N3C[C@H]4CC[C@@H](C3)N4)n1)CCN(c1nc(N)cc3ccccc13)C2 [Example 60, 1-(4-((1R,5S)-3,8-diazabicyclo[3.2.1]octan-3-yl)-2-(((S)-1-methylpyrrolidin-2-yl)methoxy)-5,8-dihydropyrido[3,4-d]pyrimidin-7(6H)-yl)isoquinolin-3-amine] | > 10000 nM |
| COC[C@H]1C[C@@H]2CN(c3nc(OC[C@@H]4CCCN4C)nc4c3CCN(c3cccc5cccc(Cl)c35)C4)C[C@H]1N2 (single isomer, unassigned) [Example 94] | 852 nM |
| CC(C)c1ccccc1N1CCc2c(nc(OCC34CCCN3[C@@H](COC(=O)N(C)C)CC4)nc2N2CC3CCC(C2)N3)C1 (stereo partly drawn) [Example 32, (7a-(((4-((1R,5S)-3,8-diazabicyclo[3.2.1]octan-3-yl)-7-(2-isopropylphenyl)-5,6,7,8-tetrahydropyrido[3,4-d]pyrimidin-2-yl)oxy)methyl)hexahydro-1H-pyrrolizin-3-yl)methyl dimethylcarbamate (trans enantiomers)] | 1170 nM |
| Brc1cc(N2CCc3c(nc(OCC45CCCN4CCC5)nc3N3C[C@H]4CC[C@@H](C3)N4)C2)c2ccccc2c1 [Example 111, 4-((1R,5S)-3,8-diazabicyclo[3.2.1]octan-3-yl)-7-(3-bromonaphthalen-1-yl)-2-((tetrahydro-1H-pyrrolizin-7a(5H)-yl)methoxy)-5,6,7,8-tetrahydropyrido[3,4-d]pyrimidine] | 1050 nM |
| CN1CCC[C@H]1COc1nc2c(c(N3C[C@H]4C[C@@H](C#N)[C@@H](C3)N4)n1)CCN(c1cccc3cccc(Cl)c13)C2 [Example 92, (1R,5S,6R)-3-(7-(8-chloronaphthalen-1-yl)-2-(((S)-1-methylpyrrolidin-2-yl)methoxy)-5,6,7,8-tetrahydropyrido[3,4-d]pyrimidin-4-yl)-3,8-diazabicyclo[3.2.1]octane-6-carbonitrile] | 5490 nM |
| CN1CCC[C@H]1COc1nc2c(c(N3C[C@H]4CC[C@@H](C3)N4)n1)CCN(c1cccc3c(F)cccc13)C2 [Example 16, 4-((1R,5S)-3,8-diazabicyclo[3.2.1]octan-3-yl)-7-(5-fluoronaphthalen-1-yl)-2-(((S)-1-methylpyrrolidin-2-yl)methoxy)-5,6,7,8-tetrahydropyrido[3,4-d]pyrimidine] | 1760 nM |
| CN1CCC[C@H]1COc1nc2c(c(N3CC4CCC(CC#N)(C3)N4)n1)CCN(c1cccc3cccc(Cl)c13)C2 (stereo partly drawn) [Example 42, 2-(3-(7-(8-chloronaphthalen-1-yl)-2-(((S)-1-methylpyrrolidin-2-yl)methoxy)-5,6,7,8-tetrahydropyrido[3,4-d]pyrimidin-4-yl)-3,8-diazabicyclo[3.2.1]octan-1-yl)acetonitrile] | 1800 nM |
| Clc1ccc2cccc(N3CCc4c(nc(OCC56CCCN5CCC6)nc4N4C[C@H]5CC[C@@H](C4)N5)C3)c2c1Cl [Example 12, 4-((1R,5S)-3,8-diazabicyclo[3.2.1]octan-3-yl)-7-(7,8-dichloronaphthalen-1-yl)-2-((tetrahydro-1H-pyrrolizin-7a(5H)-yl)methoxy)-5,6,7,8-tetrahydropyrido[3,4-d]pyrimidine] | 345 nM |
| CNC(=O)OC[C@H]1CCC2(COc3nc4c(c(N5CC6CCC(C5)N6)n3)CCN(c3cccc5cccc(C)c35)C4)CCCN12 (stereo partly drawn) [Example 21, (7a-(((4-((1R,5S)-3,8-diazabicyclo[3.2.1]octan-3-yl)-7-(8-methylnaphthalen-1-yl)-5,6,7,8-tetrahydropyrido[3,4-d]pyrimidin-2-yl)oxy)methyl)hexahydro-1H-pyrrolizin-3-yl)methyl methylcarbamate (trans enantiomers)] | 12.3 nM |
| c1cc2c(c(N3CCc4c(nc(OCC56CCCN5CCC6)nc4N4C[C@H]5CC[C@@H](C4)N5)C3)c1)CCC2 [Example 104, 4-((1R,5S)-3,8-diazabicyclo[3.2.1]octan-3-yl)-7-(2,3-dihydro-1H-inden-4-yl)-2-((tetrahydro-1H-pyrrolizin-7a(5H)-yl)methoxy)-5,6,7,8-tetrahydropyrido[3,4-d]pyrimidine] | 756 nM |
| c1cc2c(c(N3CCc4c(nc(OCC56CCCN5CCC6)nc4N4C[C@H]5CC[C@@H](C4)N5)C3)c1)C(C1CC1)CC2 (stereo partly drawn) [Example 102, 4-((1R,5S)-3,8-diazabicyclo[3.2.1]octan-3-yl)-7-(3-cyclopropyl-2,3-dihydro-1H-inden-4-yl)-2-((tetrahydro-1H-pyrrolizin-7a(5H)-yl)methoxy)-5,6,7,8-tetrahydropyrido[3,4-d]pyrimidine] | 654 nM |
| CN1CCC[C@H]1COc1nc2c(c(N3C[C@H]4CC[C@@H](C3)N4)n1)CCN(c1cccc3c(Cl)cccc13)C2 [Example 15, 4-((1R,5S)-3,8-diazabicyclo[3.2.1]octan-3-yl)-7-(5-chloronaphthalen-1-yl)-2-(((S)-1-methylpyrrolidin-2-yl)methoxy)-5,6,7,8-tetrahydropyrido[3,4-d]pyrimidine] | 7900 nM |
| FC1(F)CCc2c(N3CCc4c(nc(OCC56CCCN5CCC6)nc4N4C[C@H]5CC[C@@H](C4)N5)C3)cccc21 [Example 101, 4-((1R,5S)-3,8-diazabicyclo[3.2.1]octan-3-yl)-7-(1,1-difluoro-2,3-dihydro-1H-inden-4-yl)-2-((tetrahydro-1H-pyrrolizin-7a(5H)-yl)methoxy)-5,6,7,8-tetrahydropyrido[3,4-d]pyrimidine] | 2490 nM |
| CCc1c(F)ccc2cc(O)cc(N3CCc4c(nc(OC[C@@]56CCCN5C[C@H](F)C6)nc4N4C[C@H]5CC[C@@H](C4)N5)C3)c12 [Example 118, 4-(4-((1R,5S)-3,8-diazabicyclo[3.2.1]octan-3-yl)-2-(((2R,7aS)-2-fluorohexahydro-1H-pyrrolizin-7a-yl)methoxy)-5,6-dihydropyrido[3,4-d]pyrimidin-7(8H)-yl)-5-ethyl-6-fluoronaphthalen-2-ol] | 2.1 nM |
